# What was measured:
# [1] = test system: Lymphatic leukemia L 1210; assay: Lymphatic leukemia L 1210 survival in mice; format: in vivo, CDF1 (C3H×DBA/2)F1 mice; details: one i.p. injection; for Weight change Δv: T - C up to the 5th day
# Description: The experimental design and the interpretation of the results are in accordance with the standards set by the CCNSC (Cancer Chemotherpy Reports, January 1959 and December 1962).
# Lymphatic leukemia L 1210.
# Experimental animals: CDF1 (C3H×DBA/2)F1 mice
# Tumour implant: 10^5 tumour cells i.p.
# Therapy: One injection i.p. on the day following implanta-
# Evaluation: (a) The survival time of the test animals (t)
# expressed as the percentage of that of control animals (c).
# (b) Weight change in the test animals (T) compared with that
# of the control animals (C) up to the 5th day.
# (c) The mortality rate must not exceed 35% in the test
# animals on the 5th day of therapy.
# [2] = target: T1, rabbit uterus cytosol progesterone receptor (Oryctolagus cuniculus, UniProt P06186); assay: Relative affinity to rabbit uterus cytosol progesterone receptor (3H-progesterone competition); format: binding; details: compared to progesterone; 50% competition with 3H-progesterone; 16-18 hours at 4° C.
# T1 construct: One ml portions of the supernatant (rabbit uterus cytosol) were pipetted into small centrifuge tubes of glass; from tissue; host or cells: uterus cytosol (105,000×g supernatant) of female rabbits pretreated with polyestradiol phosphate
# T1 sequence (P06186 1-930): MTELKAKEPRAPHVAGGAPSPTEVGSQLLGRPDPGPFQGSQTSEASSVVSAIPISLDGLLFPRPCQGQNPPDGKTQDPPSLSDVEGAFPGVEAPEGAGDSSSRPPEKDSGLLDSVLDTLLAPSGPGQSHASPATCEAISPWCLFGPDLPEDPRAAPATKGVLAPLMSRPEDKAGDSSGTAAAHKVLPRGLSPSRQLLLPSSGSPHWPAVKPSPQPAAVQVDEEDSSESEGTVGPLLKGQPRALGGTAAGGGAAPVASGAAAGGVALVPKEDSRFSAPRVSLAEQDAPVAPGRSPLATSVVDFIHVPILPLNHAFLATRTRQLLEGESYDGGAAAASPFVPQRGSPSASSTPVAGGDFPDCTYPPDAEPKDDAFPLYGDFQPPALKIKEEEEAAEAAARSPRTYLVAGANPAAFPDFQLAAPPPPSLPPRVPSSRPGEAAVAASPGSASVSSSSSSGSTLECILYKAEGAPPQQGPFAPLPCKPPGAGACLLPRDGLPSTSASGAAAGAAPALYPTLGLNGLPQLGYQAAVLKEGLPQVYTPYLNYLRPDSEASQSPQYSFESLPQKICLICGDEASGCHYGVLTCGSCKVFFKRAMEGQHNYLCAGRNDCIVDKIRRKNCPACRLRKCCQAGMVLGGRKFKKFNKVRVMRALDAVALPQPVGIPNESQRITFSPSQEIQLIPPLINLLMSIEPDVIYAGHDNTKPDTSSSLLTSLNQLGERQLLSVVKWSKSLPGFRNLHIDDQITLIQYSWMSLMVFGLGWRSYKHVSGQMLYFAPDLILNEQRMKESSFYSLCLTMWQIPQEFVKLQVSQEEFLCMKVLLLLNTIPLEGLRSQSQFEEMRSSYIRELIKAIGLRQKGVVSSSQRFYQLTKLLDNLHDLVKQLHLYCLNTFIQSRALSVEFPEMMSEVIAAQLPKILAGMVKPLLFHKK
# Method: This example illustrates the compound's relative affinity to rabbit uterus cytosol progesterone receptor compared with progesterone. The method used for this purpose is a modification of methods already described by Kontula, K. et al. (Acta Endocrinol. 78 (1975) 574) and Terenius, L. (Steroids 23 (1974) 909) among others.
# Female rabbits (3-4 pounds) from Knut Larsen, Uddevalla, Sweden, were injected i.m. with 1 mg Estradurin (polyestradiol phosphate, 1 mg/ml saline, AB Leo, Sweden). After one week, the animals were killed and the uteri were immediately removed, chilled and cut free from connective tissues. All the following operations were performed at 0°-4° C. The uteri were cut into small pieces and washed several times with 3 vol. of buffer at pH 7.4 containing 50 MM TRIS-HCl, 1.5 mM EDTA, 3 mM NaN3, 2 mM dithiothreitol, and 25% glycerol (by vol.). The tissue was homogenized in the same buffer (3 vol.) with four 15-s bursts at rheostat setting 36-37 of an Ultra Turrax (Janke and Kunkel KG, Staufen, The Federal Republic of Germany). The homogenate was centifuged in a Sorvall GLC-2 centrifuge for 15 min at 600×g. The supernatanate was recentrifuged at 105,000×g for 60 min in a Beckman ultracentrifuge model LB-65-B with rotor SW 56.
# One ml portions of the supernatant (rabbit uterus cytosol) were pipetted into small centrifuge tubes of glass and were kept at -70° C. until used. The protein content was determined by the method of Lowry (J. Biol. Chem. 193 (1951) 265).
# 10.0 mg of each compound was dissolved in 10.0 ml 99.5% ethanol. 100 μl of this standard solution was diluted to 5.0 ml ethanol/glycerol 1:1 (v/v). The ethanol was evaporated by blowing air at 40° C. on the solution. The volume was then adjusted to 5.0 ml by adding buffer without glycerol.
# The compounds were diluted with glycerol/buffer 1:1 to final concentrations between 10^-8 -10^-5 M in total 300 μl incubation media. 100 μl of each compound and of each dilution were incubated in small centrifuge tubes (2 ml) together with 100 μl (10 pg) ^3 H-progesterone (1,2,6,7-3H-progesterone, 47.8 Ci/mMol, The Radiochemical Centre, Amersham, England) and 100 μl cytosol adjusted with buffer to a final concentration of about […]. The incubations were carried out for 16-18 hours at 4° C.
# The separation of bound from free radioactivity was carried out at 0° C. using the dextran coated charcoal technique (DCC). To each incubation tube was added 0.5 ml DCC-suspension (0.05% dextran-70, Pharmacia, Uppsala, Sweden and 0.5% Norit A, Sigma, Saint Louis, Missouri, U.S.A.) The tubes were agitated 2-3 times during 10 minutes whereupon they were centrifuged at 100×g for five minutes. The supernatantes were decanted directly into Scintillation vials (polyethene, Packard) containing 10 ml InstaGel (Packard). The radioactivity was counted in a Philip's liquid scintillation spectrometer Model PW 4510/00 with external standard and automatic quenching correction.
# To incubation tubes were added 100 μl cytosol, 100 μl ^3 H-progesterone (10 pg) and 100 μl of different dilutions of non-radioactive progesterone in glycerol/buffer 1:1 ranging from 0-10^4 pg/100 μl. The tubes were incubated parallel with the compounds described above. The radioactivity was calculated by substracting the counted radioactivity in the incubation tubes with the radioactivity counted in incubations tubes in which the cytosol was replaced with buffer (100 μl).
# The concentration of non-radioactive progesterone [P]i which competes for 50% of bound radioactive progesterone was calculated from the standard curve constructed [B] i/[B] o=0.5 where [B]i is the bound radioactivity at different concentrations of non-radioactive progesterone and [B]o is the bound radioactivity at progesterone concentration zero.
# In the same manner, curves were constructed for each compound X and the concentration for each compound which competes for 50% with bound ^3 H-progesterone ([X]50) was calculated. […]
smiles,measurement,setting,value
"CC(=O)[C@@]1(OC(=O)COC(=O)c2ccc(C)c(N(CCCl)CCCl)c2)CC[C@H]2[C@@H]3CCC4=CC(=O)CC[C@]4(C)[C@H]3CC[C@@]21C [Compound 3:7, 17α-/3-(N,N-bis(2-chloroethyl)amino)-4-methylbenzoyloxyacetoxy/pregn-4-ene-3,20-dione]",Effect (survival time of test animals as percentage of that of control animals),[1]; 250 mg/kg,130%
same,Mortality,[1]; 250 mg/kg,0/20
same,Weight change Δv,[1]; 250 mg/kg,-4.0 g
same,Effect (survival time of test animals as percentage of that of control animals),[1]; 500 mg/kg,172%
same,Mortality,[1]; 500 mg/kg,0/19
same,Weight change Δv,[1]; 500 mg/kg,-5.2 g
same,relative binding affinity (RBA),[2],1.8%

# — patent publication US4177269A, “Novel 17-esters of 17α-hydroxy gestogens, compositions containing such compounds, processes for their preparation and methods of treatment therewith” (Aktiebolaget Leo, priority 1976, dated 1979)
